Results published in patent publication US20260049092A1, “ANTIBACTERIAL COMPOUNDS” (Blacksmith Medicines, Inc., priority 2022, published 2026).
≈ marks a conversion by molar mass, not a printed value. Read-outs that look alike come from different tables or passages of the source.

Experiments:
Experiment in all cases: Bacterial susceptibility testing (MIC, broth microdilution)
Type in all cases: cell-based
E. coli ATCC25922 = conditions: Escherichia coli
Method: (§1) Minimal inhibitory concentrations (MIC) were determined by the broth microdilution method in accordance with the Clinical and Laboratory Standards Institute (CLSI) guidelines. In brief, organism suspensions were adjusted to a final inoculum between 3×10^5 and 7×10^5 colony-forming units (CFU)/mL. Drug dilutions and inocula were made in sterile, cation adjusted Mueller-Hinton Broth (Beckton Dickinson). In wells, an inoculum volume of 100 μL was mixed to 2 μL of DMSO with 2-fold serial dilutions of drug. All inoculated microdilution trays were incubated in ambient air at 35° C. for 18-24 h. Following incubation, the lowest concentration of the drug that prevented visible growth (OD600 nm<0.05) was recorded as the MIC. Performance of the assay was monitored by the use of laboratory quality -control strains and compounds with defined MIC spectrum, in accordance with CLSI guidelines.

K. pneumoniae ATCC13883 = conditions: Klebsiella pneumoniae
Method: as §1

P. aeruginosa PAO1 = conditions: Pseudomonas aeruginosa
Method: as §1

P. aeruginosa ATCC27853 = conditions: Pseudomonas aeruginosa
Method: as §1

[1] = ATCC25922, broth microdilution, cation adjusted Mueller-Hinton Broth, 35° C., 18-24 h, read-out: E. coli ATCC25922 MIC
[2] = ATCC13883, broth microdilution, cation adjusted Mueller-Hinton Broth, 35° C., 18-24 h, read-out: K. pneumoniae ATCC13883 MIC
[3] = PAO1, broth microdilution, cation adjusted Mueller-Hinton Broth, 35° C., 18-24 h, read-out: P. aeruginosa PAO1 MIC
[4] = ATCC27853, broth microdilution, cation adjusted Mueller-Hinton Broth, 35° C., 18-24 h, read-out: P. aeruginosa ATCC27853 MIC
[5] = ATCC25922, read-out: E. coli ATCC25922 MIC
[6] = ATCC13883, read-out: K. pneumoniae ATCC13883 MIC
[7] = PAO1, read-out: P. aeruginosa PAO1 MIC
[8] = ATCC27853, read-out: P. aeruginosa ATCC27853 MIC

| SMILES | MIC (E. coli ATCC25922; [1]) | MIC (K. pneumoniae ATCC13883; [2]) | MIC (P. aeruginosa PAO1; [3]) | MIC (P. aeruginosa ATCC27853; [4]) | MIC (E. coli ATCC25922; [5]) | MIC (K. pneumoniae ATCC13883; [6]) | MIC (P. aeruginosa PAO1; [7]) | MIC (P. aeruginosa ATCC27853; [8]) |
| --- | --- | --- | --- | --- | --- | --- | --- | --- |
| C[C@H](O)c1nccn1[C@@H](C#Cc1ccc(-c2ccc(O[C@H]3C[C@H](NCC#N)C3)cc2)cc1)CO (racemic) [Compound 121, 2-(((rac-trans)-3-((4′-((S)-4-hydroxy-3-(2-((S)-1-hydroxyethyl)-1H-imidazol-1-yl)but-1-yn-1-yl)-[1,1′-biphenyl]-4-yl)oxy)cyclobutyl)amino) acetonitrile] | 0.5 µg/mL (≈ 1.1 µM) | 1 µg/mL (≈ 2.19 µM) | 1 µg/mL (≈ 2.19 µM) | 4 µg/mL (≈ 8.76 µM) | – | – | – | – |
| CNC(=O)[C@H]1C[C@H](Oc2ccc(-c3ccc(C#C[C@@H](CO)n4ccnc4[C@H](C)O)cc3)cc2)C1 (racemic) [Compound 122, (rac-trans)-3-((4′-((S)-4-hydroxy-3-(2-((S)-1-hydroxyethyl)-1H-imidazol-1-yl)but-1-yn-1-yl)-[1,1′-biphenyl]-4-yl)oxy)-N-methylcyclobutane-1-carboxamide] | 0.5 µg/mL (≈ 1.09 µM) | 1 µg/mL (≈ 2.18 µM) | 2 µg/mL (≈ 4.35 µM) | 2 µg/mL (≈ 4.35 µM) | – | – | – | – |
| C[C@H](O)c1nccn1[C@@H](C#Cc1ccc(-c2ccc(O[C@@H]3COC[C@H]3OC(F)(F)F)cc2)cc1)CO (racemic) [Compound 124, (S)-2-(2-((S)-1-hydroxyethyl)-1H-imidazol-1-yl)-4-(4′-(((rac-trans)-4-(trifluoromethoxy)-tetrahydrofuran-3-yl)oxy)-[1,1′-biphenyl]-4-yl)but-3-yn-1-ol] | 2 µg/mL (≈ 3.98 µM) | 4 µg/mL (≈ 7.96 µM) | 8 µg/mL (≈ 15.9 µM) | > 32 µg/mL | – | – | – | – |
| C[C@H](O)c1nccn1[C@@H](C#Cc1ccc(-c2ccc(O[C@@H]3C[C@H]3NCC#N)cc2)cc1)CO (racemic) [Compound 141, 2-(((rac-trans)-2-((4′-((S)-4-hydroxy-3-(2-((S)-1-hydroxyethyl)-1H-imidazol-1-yl)but-1-yn-1-yl)-[1,1′-biphenyl]-4-yl)oxy)cyclopropyl)amino) acetonitrile] | – | – | – | – | 1 µg/mL (≈ 2.26 µM) | 1 µg/mL (≈ 2.26 µM) | 2 µg/mL (≈ 4.52 µM) | 8 µg/mL (≈ 18.1 µM) |
| C[C@H](O)c1nccn1[C@@H](C#Cc1ccc(-c2ccc(O[C@H]3C[C@@H](CNCC#N)C3)cc2)cc1)CO (racemic) [Compound 142, 2-((((rac-cis)-3-((4′-((S)-4-hydroxy-3-(2-((S)-1-hydroxyethyl)-1H-imidazol-1-yl)but-1-yn-1-yl)-[1,1′-biphenyl]-4-yl)oxy)cyclobutyl)methyl)amino)acetonitrile] | – | – | – | – | 1 µg/mL (≈ 2.13 µM) | 2 µg/mL (≈ 4.25 µM) | 2 µg/mL (≈ 4.25 µM) | 4 µg/mL (≈ 8.5 µM) |
| C[C@H](O)c1nccn1[C@@H](C#Cc1ccc(-c2ccc(O[C@H]3COC[C@@H]3O)cc2F)cc1)CO (single isomer, unassigned) [Compound 2] | 1 µg/mL (≈ 2.21 µM) | 2 µg/mL (≈ 4.42 µM) | 2 µg/mL (≈ 4.42 µM) | 4 µg/mL (≈ 8.84 µM) | – | – | – | – |
| C[C@H](O)c1nccn1[C@@H](C#Cc1ccc(-c2ccc(O[C@@H]3COC[C@H]3O)cc2F)cc1)CO (single isomer, unassigned) [Compound 3] | 1 µg/mL (≈ 2.21 µM) | 2 µg/mL (≈ 4.42 µM) | 2 µg/mL (≈ 4.42 µM) | 2 µg/mL (≈ 4.42 µM) | – | – | – | – |
| C[C@H](O)c1nccn1[C@@H](C#Cc1ccc(-c2ccc(OC3COC[C@@H]3O)c(F)c2)cc1)CO (single isomer, unassigned) [Compound 7] | 1 µg/mL (≈ 2.21 µM) | 4 µg/mL (≈ 8.84 µM) | 2 µg/mL (≈ 4.42 µM) | 4 µg/mL (≈ 8.84 µM) | – | – | – | – |
| C[C@H](O)c1nccn1[C@@H](C#Cc1ccc(-c2ccc(OC3COC[C@H]3O)c(F)c2)cc1)CO (single isomer, unassigned) [Compound 8] | 2 µg/mL (≈ 4.42 µM) | 4 µg/mL (≈ 8.84 µM) | 2 µg/mL (≈ 4.42 µM) | 4 µg/mL (≈ 8.84 µM) | – | – | – | – |
| C[C@H](O)c1nccn1[C@@H](C#Cc1ccc(-c2ccc(O[C@@H]3COC[C@H]3O)c(F)c2)c(F)c1)CO (single isomer, unassigned) [Compound 10] | 1 µg/mL (≈ 2.13 µM) | 2 µg/mL (≈ 4.25 µM) | 4 µg/mL (≈ 8.5 µM) | 8 µg/mL (≈ 17 µM) | – | – | – | – |
| C[C@H](O)c1nccn1[C@@H](C#Cc1ccc(-c2ccc(O[C@H]3COC[C@@H]3O)c(F)c2)c(F)c1)CO (single isomer, unassigned) [Compound 11] | 1 µg/mL (≈ 2.13 µM) | 4 µg/mL (≈ 8.5 µM) | 4 µg/mL (≈ 8.5 µM) | 8 µg/mL (≈ 17 µM) | – | – | – | – |
| C[C@H](O)c1nccn1[C@@H](C#Cc1ccc(-c2ccc(O[C@@H]3COC[C@H]3O)c(F)c2F)cc1)CO (single isomer, unassigned) [Compound 13] | 2 µg/mL (≈ 4.25 µM) | 4 µg/mL (≈ 8.5 µM) | 4 µg/mL (≈ 8.5 µM) | 16 µg/mL (≈ 34 µM) | – | – | – | – |
| C[C@H](O)c1nccn1[C@@H](C#Cc1ccc(-c2ccc(O[C@H]3COC[C@@H]3O)c(F)c2F)cc1)CO (single isomer, unassigned) [Compound 14] | 2 µg/mL (≈ 4.25 µM) | 4 µg/mL (≈ 8.5 µM) | 4 µg/mL (≈ 8.5 µM) | 8 µg/mL (≈ 17 µM) | – | – | – | – |
| C[C@H](O)c1nccn1[C@@H](C#Cc1ccc(-c2ccc(CO[C@H]3COC[C@@H]3O)c(F)c2)cc1)CO (single isomer, unassigned) [Compound 45] | 1 µg/mL (≈ 2.14 µM) | 2 µg/mL (≈ 4.29 µM) | 2 µg/mL (≈ 4.29 µM) | 4 µg/mL (≈ 8.57 µM) | – | – | – | – |
| C[C@H](O)c1nccn1[C@@H](C#Cc1ccc(-c2ccc(O[C@@H]3COC[C@H]3O)cc2Cl)cc1)CO (single isomer, unassigned) [Compound 47] | 1 µg/mL (≈ 2.13 µM) | 4 µg/mL (≈ 8.53 µM) | 4 µg/mL (≈ 8.53 µM) | 4 µg/mL (≈ 8.53 µM) | – | – | – | – |

Now from value to molecule, other results behind:

| MIC (E. coli ATCC25922; [1]) | MIC (K. pneumoniae ATCC13883; [2]) | MIC (P. aeruginosa PAO1; [3]) | MIC (P. aeruginosa ATCC27853; [4]) | SMILES | MIC (E. coli ATCC25922; [5]) | MIC (K. pneumoniae ATCC13883; [6]) | MIC (P. aeruginosa PAO1; [7]) | MIC (P. aeruginosa ATCC27853; [8]) |
| --- | --- | --- | --- | --- | --- | --- | --- | --- |
| 0.25 µg/mL (≈ 0.564 µM) | 1 µg/mL (≈ 2.25 µM) | 1 µg/mL (≈ 2.25 µM) | 1 µg/mL (≈ 2.25 µM) | CC(=O)N[C@H]1C[C@H](c2ccc(-c3ccc(C#C[C@@H](CO)n4ccnc4[C@H](C)O)cc3)cc2)C1 (racemic) [Compound 127, N-((rac-trans)-3-(4′-((S)-4-hydroxy-3-(2-((S)-1-hydroxyethyl)-1H-imidazol-1-yl)but-1-yn-1-yl)-[1,1′-biphenyl]-4-yl)cyclobutyl)acetamide] | – | – | – | – |
| 0.5 µg/mL (≈ 1.17 µM) | 1 µg/mL (≈ 2.34 µM) | 2 µg/mL (≈ 4.68 µM) | 4 µg/mL (≈ 9.36 µM) | C[C@H](O)c1nccn1[C@@H](C#Cc1ccc(-c2ccc(O[C@H]3C[C@@H](C#N)C3)cc2)cc1)CO (racemic) [Compound 129, (rac-cis)-3-((4′-((S)-4-hydroxy-3-(2-((S)-1-hydroxyethyl)-1H-imidazol-1-yl)but-1-yn-1-yl)-[1,1′-biphenyl]-4-yl)oxy)cyclobutane-1-carbonitrile] | – | – | – | – |
| 0.25 µg/mL (≈ 0.585 µM) | 1 µg/mL (≈ 2.34 µM) | 2 µg/mL (≈ 4.68 µM) | > 32 µg/mL | C[C@H](O)c1nccn1[C@@H](C#Cc1ccc(-c2ccc(O[C@H]3C[C@H](C#N)C3)cc2)cc1)CO (racemic) [Compound 130, (rac-trans)-3-((4′-((S)-4-hydroxy-3-(2-((S)-1-hydroxyethyl)-1H-imidazol-1-yl)but-1-yn-1-yl)-[1,1′-biphenyl]-4-yl)oxy) cyclobutane-1-carbonitrile] | – | – | – | – |
| 1 µg/mL (≈ 2.19 µM) | 2 µg/mL (≈ 4.38 µM) | 2 µg/mL (≈ 4.38 µM) | > 32 µg/mL | C[C@H](O)c1nccn1[C@@H](C#Cc1ccc(-c2ccc(O[C@H]3C[C@@H](NCC#N)C3)cc2)cc1)CO (racemic) [Compound 131, 2-((rac-cis)-3-((4′-((S)-4-hydroxy-3-(2-((S)-1-hydroxyethyl)-1H-imidazol-1-yl)but-1-yn-1-yl)-[1,1′-biphenyl]-4-yl)oxy)cyclobutyl)amino) acetonitrile] | – | – | – | – |
| 2 µg/mL (≈ 4.04 µM) | > 32 µg/mL | 4 µg/mL (≈ 8.07 µM) | 4 µg/mL (≈ 8.07 µM) | C[C@H](O)c1nccn1[C@@H](C#Cc1ccc(-c2ccc(O[C@H]3C[C@@H](NS(C)(=O)=O)C3)cc2)cc1)CO (racemic) [Compound 132, N-((rac-cis)-3-((4′-((S)-4-hydroxy-3-(2-((S)-1-hydroxyethyl)-1H-imidazol-1-yl)but-1-yn-1-yl)-[1,1′-biphenyl]-4-yl)oxy)cyclobutyl)methane-sulfonamide] | – | – | – | – |
| 1 µg/mL (≈ 2.13 µM) | 8 µg/mL (≈ 17 µM) | 4 µg/mL (≈ 8.5 µM) | 4 µg/mL (≈ 8.5 µM) | C[C@H](O)c1nccn1[C@@H](C#Cc1ccc(-c2ccc(O[C@H]3C[C@H](CNCC#N)C3)cc2)cc1)CO (racemic) [Compound 133, 2-((((rac-trans)-3-((4′-((S)-4-hydroxy-3-(2-((S)-1-hydroxyethyl)-1H-imidazol-1-yl)but-1-yn-1-yl)-[1,1′-biphenyl]-4-yl)oxy)cyclobutyl)methyl)amino) acetonitrile] | – | – | – | – |
| 0.5 µg/mL (≈ 1.13 µM) | 2 µg/mL (≈ 4.51 µM) | 2 µg/mL (≈ 4.51 µM) | 2 µg/mL (≈ 4.51 µM) | CC(=O)N[C@H]1C[C@@H](c2ccc(-c3ccc(C#C[C@@H](CO)n4ccnc4[C@H](C)O)cc3)cc2)C1 (racemic) [Compound 135, N-((rac-cis)-3-(4′-((S)-4-hydroxy-3-(2-((S)-1-hydroxyethyl)-1H-imidazol-1-yl)but-1-yn-1-yl)-[1,1′-biphenyl]-4-yl)cyclobutyl)acetamide] | – | – | – | – |
| 0.5 µg/mL (≈ 1.09 µM) | 2 µg/mL (≈ 4.35 µM) | 0.5 µg/mL (≈ 1.09 µM) | 1 µg/mL (≈ 2.18 µM) | CNC(=O)[C@H]1C[C@@H](Oc2ccc(-c3ccc(C#C[C@@H](CO)n4ccnc4[C@H](C)O)cc3)cc2)C1 (racemic) [Compound 137, (rac-cis)-3-((4′-((S)-4-hydroxy-3-(2-((S)-1-hydroxyethyl)-1H-imidazol-1-yl)but-1-yn-1-yl)-[1,1′-biphenyl]-4-yl)oxy)-N-methylcyclobutane-1-carboxamide] | – | – | – | – |
